Measurements reported in patent US20080009451A1, “Applications of kidney secreted bone growth factor and pharmaceutical use of flavonol and flavonol glycosides for stimulating the secretion of kidney secreted bone growth factor” (priority 2005, published 2008).
“Also recorded” adds a separate entry of the source.

Assays:
opossum kidney (OK) cell = assay: Renal tubular (OK) cell proliferation, CellTiter 96 at OD570; format: cell-based; details: compound added to OK cells, 0-60 nM (0-79 nM) or various concentrations, three days incubation (24 hours in Example 3.2)
Experimental: Flavonol Increased Renal Tubular Cell Proliferation Ok cells at 1×10^4/ml (0.1 ml) were added into 96 wells plate. Several flavonol ? Fisetin, ? Kaempferol, ? quercetin a ? ? icariin or the control flavonoid (which are not flavonol) such as apigenin and kaempferol-3-methyl ether were added to make the final concentration at 0-60 nM. (0-79 nM)
After three days incubation, the cell growth was examined with CellTiter 96 (Non-Radioactive Cell Proliferation Assay kit) (Promega) at OD570 nm. The higher OD, the higher the numbers of living cells. (FIG. 2.)
OK cell, MC 3T3 E1 and HHF cells at 2×10^4/ml (0.1 ml) were added into 96 well plates, with various concentration of kaempferol was applied. After the cells were cultured for 3 days, cell growth was examined.
Preparation of OKM and CM: OK cells at 2×10^4/ml (0.1 ml) mixed with various concentrations of kaempferol were incubated in 96 well plate. The medium made of the same condition as above without OK cells was also incubated in the 96 well plates. After 24 hour, the mediums were collected. The OK cell growth was examined.

[1] = system: MC 3T3 E1 cell (osteoblast); assay: Osteoblast proliferation in OK cell conditioned medium (OKM); format: cell-based; details: OK cells incubated 24 hours with compound, 80 μl medium on MC 3T3 E1, 3 days
Experimental: In this example, OK cells were used as the kidney tubular cell. OK cells at 6×10^4ml (3 ml) were added into 6 wells plate and various concentrations of flavonol, flavonol glycosides, apigenin and isokaempferol were applied. At the same time, the control culture medium (CM) with the same condition as above but without cells was prepared. After 24 hours incubation, the medium was collected for osteoblast culture. The OK cell growth was examined as discussed above. In this example, the osteoblast was the MC 3T3 E1 cell. MC 3T3 E1 at 1×10^5/ml (20 μl) was added into 96 wells plate. Additionally, 80 μL of OKM or CM were recruited. After 3 days incubation, the osteoblast growth was examined as discussed above. […] OK cells at 2×10^4/ml (0.1 ml) mixed with various concentrations of kaempferol were incubated in 96 well plate. The medium made of the same condition as above without OK cells was also incubated in the 96 well plates. After 24 hour, the mediums were collected. The OK cell growth was examined. MC 3T3 E1 cells at 1×10^5/ml (20 μl) were applied into 96 well plate along with OKM and CM (80 μl). After 3 days incubation, the cell numbers were examined. The preparation of OKM and CM: OK cells at 6×10^4/ml (3 ml) were incubated in 6 well plates over night. After the medium was removed, the fresh medium with or without 70 nM kaempferol was added. The control medium (CM) was prepared under the same condition, without OK cells. After incubation for 24 hour, all medium were collected for MC 3T3 E1 and HFF cell growth experiments. MC 3T3 E1 and HFF cell at 1×10^5/ml were added (20 μl) into 96 well plates. In addition, 80 μl of OKM, CM and fresh culture medium with and without kaempferol were applied.

[2] = system: human heart fibroblast (HHF/HFF); assay: Fibroblast proliferation in OK cell conditioned medium (OKM); format: cell-based; details: OK cells incubated 24 hours with compound; medium on human heart fibroblast; 3 days
Experimental: In this example, OK cells were used as the kidney tubular cell. OK cells at 6×10^4ml (3 ml) were added into 6 wells plate and various concentrations of flavonol, flavonol glycosides, apigenin and isokaempferol were applied. At the same time, the control culture medium (CM) with the same condition as above but without cells was prepared. After 24 hours incubation, the medium was collected for osteoblast culture. The OK cell growth was examined as discussed above. The preparation of OKM and CM: OK cells at 6×10^4/ml (3 ml) were incubated in 6 well plates over night. After the medium was removed, the fresh medium with or without 70 nM kaempferol was added. The control medium (CM) was prepared under the same condition, without OK cells. After incubation for 24 hour, all medium were collected for MC 3T3 E1 and HFF cell growth experiments. MC 3T3 E1 and HFF cell at 1×10^5/ml were added (20 μl) into 96 well plates. In addition, 80 μl of OKM, CM and fresh culture medium with and without kaempferol were applied.

[3] = system: MC 3T3 E1 cell (osteoblast); assay: Direct effect of compound on osteoblast proliferation; format: cell-based; details: medium incubated without kidney cells; 70 nM or various concentrations; 3 days
Experimental: (§1) OK cell, MC 3T3 E1 and HHF cells at 2×10^4/ml (0.1 ml) were added into 96 well plates, with various concentration of kaempferol was applied. After the cells were cultured for 3 days, cell growth was examined. The preparation of OKM and CM: OK cells at 6×10^4/ml (3 ml) were incubated in 6 well plates over night. After the medium was removed, the fresh medium with or without 70 nM kaempferol was added. The control medium (CM) was prepared under the same condition, without OK cells. After incubation for 24 hour, all medium were collected for MC 3T3 E1 and HFF cell growth experiments. MC 3T3 E1 and HFF cell at 1×10^5/ml were added (20 μl) into 96 well plates. In addition, 80 μl of OKM, CM and fresh culture medium with and without kaempferol were applied.

[4] = system: HHF cells (human heart fibroblast); assay: Direct effect of compound on fibroblast proliferation; format: cell-based; details: medium incubated without kidney cells; 70 nM kaempferol; 3 days
Experimental: as §1

BMPR II = BMPR II on OK cells, immunostain and Western blot; format: cell-based, opossum
Source text: BMPR I was not found in OK cells sample, BMPR II was found on OK cell. […] Both FIGS. 6A and 6B indicate that kaempferol increases the quantity of BMPR II on OK cell.

BMP7 = BMP7 in kaempferol conditioned OKM, immune-precipitation and Western blot; format: cell-based, opossum; details: Western blot; not been repeated yet
Source text: (§2) Detail of Immune-Precipitation and Detail of Western Blot Used Standard Methods and Anti-BMP 2/4 and 7.

BMP2/4 = BMP2/4 in kaempferol conditioned OKM, immune-precipitation and Western blot; format: cell-based, opossum; details: Western blot; not been repeated yet
Source text: as §2

P63 = P63 (63 kDa protein) in kaempferol conditioned OKM, over-exposed anti-BMP2/4 Western blot; format: cell-based, opossum; details: over-exposed film; not been repeated yet
Source text: Detail of Immune-Precipitation and Detail of Western Blot Used Standard Methods and Anti-BMP 2/4 and 7. 3). […] According to the instruction from the manufacture, anti-BMP2/4 antibody may react with BMP8, 9 and 10 or other proteins. The P63 may be BMP 8, 9, 10 or another protein related to the BMP2/4.

[5] = system: MC 3T3 E1 cell (osteoblast); assay: Osteoblast proliferation in human kidney tubular cell (HK-2) conditioned medium (HKM); format: cell-based; details: HK-2 cells, 70 nM kaempferol, 24 hours; medium on MC 3T3 E1 for 3 days
Experimental: Human kidney tubular cells (HK-2) with the concentration at 1×10^5/ml (1 mL) grew in 24 well plate overnight. The cells in the wells were washed by 1 mL of PBS three times. Fresh culture medium (80 μL) without FBS but contained 0 and 70 nM kaempferol were added. The same medium without cells also prepared as above. After the samples were cultured for 24 hours, the medium was collected and named respectively 70 […] 0CM. They were used for osteoblast and fibroblast culture. MC 3T3 E1 and HFF cell at 1×10^5/ml were added (20 μl) into 96 wells plate. In addition, 80 μl of 70 […] 0CM were applied.

[6] = animal models; cited from earlier work
[7] = acute renal ischemia, unilateral uretheral obstruction, diabetic nephropathy, lupus nephritis models; cited from earlier work

Molecule: O=c1cc(-c2ccc(O)cc2)oc2cc(O)cc(O)c12 [Apigenin, apigenin]
- OK cell proliferation (optic density) (opossum kidney (OK) cell): did not increase OK cell proliferation
- OK cell proliferation (optic density) (opossum kidney (OK) cell; listed as apigenin): showed no effect
- osteoblast (MC 3T3 E1) proliferation in compound conditioned-OKM compared with control OKM [1]: did not increase osteoblast proliferation
- fibroblast proliferation in compound conditioned-OKM [2]: do not increase human heard fibroblast proliferation

Molecule: O=c1c(O)c(-c2ccc(O)cc2)oc2cc(O)cc(O)c12 [Kaempferol]
- OK cell proliferation (optic density) (opossum kidney (OK) cell): only increased OK cell proliferation
- OK cell proliferation (optic density) (opossum kidney (OK) cell; listed as kaempferol): significantly increased; also recorded: showed dose response aspect
- osteoblast (MC 3T3 E1) proliferation in compound conditioned-OKM compared with control OKM [1]: increasing osteoblast proliferation with a dose response manner; also recorded: additionally promoted MC 3T3 E1 cell proliferation
- osteoblast (MC 3T3 E1) proliferation in compound conditioned-OKM compared with control OKM ([1]; listed as kaempferol): significantly increased compared with that in the control OKM
- fibroblast proliferation in compound conditioned-OKM [2]: also did not promote HHF cell proliferation
- MC 3T3 E1 proliferation in control medium (CM) or fresh medium containing compound [3]: did not promote MC 3T3 E1 and HHF cell proliferation
- fibroblast (HHF) proliferation in control medium (CM) or fresh medium containing compound [4]: did not increase human fibroblast proliferation; also recorded: did not promote MC 3T3 E1 and HHF cell proliferation
- quantity of BMPR II on OK cells (Western blot) (BMPR II; Western blot with anti-BMPR II): increased the quantity of BMPR II on OK cells
- density of BMPR II on OK cells (immunostain) (BMPR II; immunostain with anti-BMP receptor II): increased the density of BMPR II on OK cells
- quantity of BMP7 in OKM (BMP7): increased by dose response of kaempferol; also recorded: increased in dose response to kaempferol concentration
- quantity of BMP2/4 in OKM (BMP2/4): increased by dose response of kaempferol
- quantity of P63 in OKM (P63): increased with dose response of kaempferol; also recorded: also increased with the dose of kaempferol
- MC 3T3 E1 proliferation in kaempferol conditioned HKM compared with 0HKM [5]: increased the promotion; also recorded: additionally increases the promotion

Molecule: COc1c(-c2ccc(O)cc2)oc2cc(O)cc(O)c2c1=O [isokaempferol, kaempferol-3-methyl ether]
- OK cell proliferation (optic density) (opossum kidney (OK) cell): did not increase OK cell proliferation
- OK cell proliferation (optic density) (opossum kidney (OK) cell; listed as kaempferol-3-methyl ether): showed no effect
- osteoblast (MC 3T3 E1) proliferation in compound conditioned-OKM compared with control OKM [1]: did not increase osteoblast proliferation
- fibroblast proliferation in compound conditioned-OKM [2]: do not increase human heard fibroblast proliferation

B1: BMP-7: Bone Morphogenic Protein 7, secreted protein (protein, UniProt P18075 293-431, looked up)
Bone morphogenetic protein 7: STGSKQRSQNRSKTPKNQEALRMANVAENSSSDQRQACKKHELYVSFRDLGWQDWIIAPEGYAAYYCEGECAFPLNSYMNATNHAIVQTLVHFINPETVPKPCCAPTQLNAISVLYFDDSSNVILKKYRNMVVRACGCH
- effect on osteoporosis associated with renal failure [6]: benefit
- prevention of renal failure [7]: prevent renal failure
